Series [1] relates to DOPAC (3,4-dihydroxyphenylacetic acid) in the rat striatum. Description: Increase of DOPAC in the rat striatum (in vivo neurochemistry). The settings on record: sc, read-out: ED50 DOPAC. The source says:
After the behavioural activity sessions, the rats were decapitated and their brains rapidly taken out and put on an ice-cold petri-dish. The limbic forebrain, the striatum, the frontal cortex and the remaining hemispheral parts of each rat were dissected and frozen. Each brain part was subsequently analyzed with respect to its content of monoamines and their metabolites.
The monoamine transmitter substances (NA (noradrenaline), DA (dopamine), 5-HT (serotonin)) as well as their amine (NM (normethanephrine), 3-MT (3-methoxytyramine)) and acid (DOPAC (3,4-dihydroxylphenylacetic acid), 5-HIAA (5-hydroxyindoleacetic acid), HVA (homovamllic acid)) metabolites are quantified in brain tissue homogenates by HPLC separations and electrochemical detection
The analytical method is based on two chromatographic separations dedicated for amines or acids. Two chromatographic systems share a common auto injector with a 10-port valve and two sample loops for simultaneous injection on the two systems. Both systems are equipped with a reverse phase column (Luna C18(2), dp 3 μM, 50*2 mm i.d., Phenomenex) and electrochemical detection is accomplished at two potentials on glassy carbon electrodes (MF-1000, Bioanalytical Systems, Inc.). The column effluent is passed via a T-connection to the detection cell or to a waste outlet. This is accomplished by two solenoid valves, which block either the waste or detector outlet. By preventing the chromatographic front from reaching the detector, better detection conditions are achieved. […] Detection potentials relative to Ag/AgCl reference are 0.45 and 0.60V. […] Detection potentials relative to Ag/AgCl reference are 0.45 and 0.65V.
ED50 values for the increase of DOPAC in striatum are calculated by curve fitting.

The nature of series [2]: Activity of compounds of Formula 1 (test not specified). The settings on record: test not stated.
A short description of series [3]: Oral bioavailability in rat. Type of series: in vivo. The settings on record: plasma, 12.5 umol/kg, orally 12.5 μmol/kg vs intravenously 5 μmol/kg, ratio of AUC. The protocol: Experiments are performed 24 hours after implantation of arterial and venous catheters. Test compound is administered orally at 12.5 μmol/kg or intravenously at 5 μmol/kg using the venous catheters, n=3 per group. Arterial blood samples are then taken during six hours at 0, 3, 9, 27, 60, 120, 180, 240, 300 and, 360 minutes after administration of the test compound. The oral bioavailability was calculated as the ratio of the AUC (Area under curve) obtained after oral administration over the AUC obtained after intravenous administration for each rat. The parameter AUC was calculated according to the following: […]
AUC: the area under the plasma concentration versus time curve from time zero to the last concentration measured (Clast), calculated by the log/linear trapezoidal method.
The levels of test compound are measured by means of liquid chromatography-mass spectrometry (LC-MS) (Hewlett-Packard 1100MSD Series). The LC-MS module includes a quaternary pump system, vacuum degasser, thermostatted autosampler, thermostatted column compartment, diode array detector and API-ES spray chamber. Data handling was performed with a HP ChemStation rev.A.06.03. system. Instrument settings:MSD mode: Selected ion monitoring (SIM) MSD polarity: Positiv Gas temp: 350° C. Drying gas: 13.0 l/min Nebulizer gas: 50 psig Capillary voltage: 5000 V Fragment or voltage: 70 V
Analytical column: Zorbax eclipse XDB-C8 (4.6*150 mm, 5 μm) at 20° C. The mobile phase was acetic acid (0.03%) (solvent A) and acetonitrile (solvent B). The flow rate of the mobile phase was 0.8 ml/min. The elution was starting at 12% of solvent B isocratic for 4.5 min, then increasing linearity to 60% over 4.5 min.
Extractions procedure: Plasma samples (0.25-0.5 ml) were diluted with water to 1 ml, and 60 pmol (100 μl) internal standard (−)-OSU6241 was added. The pH was adjusted to 11 by the addition of 25 μl saturated Na2CO3. […] The selective ion (MH^+) was monitored for each Example, and MH^+ 296 for (−)-OSU6241 ((3-[3-(ethylsulfonyl)phenyl]-1-propylpiperidine). […]

The nature of series [4]: Metabolic stability in rat liver microsomes. The settings on record: 15 minutes incubation at 37° C., NADPH. The series is classed as in vitro ADME. The protocol:
Rat liver microsomes were isolated as described by Forlin (1980) Tox Appl Pharm. 54(3) 420-430, with minor modifications e.g. 3 mL/g liver of a 0.1 M Na/K*PO4 buffer with 0.15M KCl, pH 7.4, (buffer 1) was added before homogenisation, the homogenate was centrifuged for 20 minutes instead of 15, the supernatant was ultracentrifuged at 100.000 g instead of 105.000 g and the pellet from the ultracentrifugation was resuspended in 1 mL/g liver of 20% v/v 87% glycerol in buffer 1.
1 μL of, 0.2 or 1 mM test substance diluted in water, and 10 μL 20 mg/mL rat liver microsome were mixed with 149 μL, 37° C. buffer 1 and the reaction was started by addition of 40 μL 4.1 mg/mL NADPH. After 0 or 15 minutes incubation at 37° C. in a heating block (LAB-LINE, MULTI-BLOK Heater or lab4you, TS-100 Thermo shaker at 700 rpm) the reaction was stopped by addition of 100 μL pure acetonitrile. […] The test compound was analysed using HPLC-MS (Hewlett-Packard 1100MSD Series) with a Zorbax SB-C18 column (2.1*150 mm, 5 μm) using 0.03% formic acid and acetonitrile as mobile phase (gradient) or a Zorbax Eclipse XDB-C18 (3*75 mm, 3.5 μm) using 0.03% acetic acid and acetonitrile as mobile phase (gradient). The 15 mM turnover was calculated as the fraction of test compound eliminated after 15 minutes, expressed in percent of 0 mM levels, i.e. 100*[conc test compound at 0 mM—concentration at 15 min]/cone at 0 mM. […]
In general terms: Liver microsomes are a subcellular fraction often used to study metabolism.

Series [5] deals with levels of dopamine and norepinephrine in the cortex. Put plainly: Microdialysis in awake and freely moving rats, cortex. The series is classed as in vivo, rat. The protocol:
Remeron is injected (s.c.) at time-point 0. The values depicted in the graph represent percent of control in relation to baseline values. The microdialysis was performed in awake and freely moving rats. Error-bars=SEM
Example 2 is injected (s.c.) at time-point 0. The values depicted in the graph represent percent of control in relation to baseline values. The microdialysis was performed in awake and freely moving rats. Error-bars=SEM
Male Sprague-Dawley rats weighing 220-320 g were used throughout the experiments. Before the experiment the animals were group housed, five animals in each cage, with free access to water and food. The animals were housed at least one week after arrival prior to surgery and use in the experiments. Each rat was used only once for microdialysis.
We use a modified version (Waters, Lofberg et al. 1994) of the I-shaped probe (Santiago and Westerink 1990). […] Co-ordinates were calculated relative to bregma; dorsal striatum AP +1, ML ±2.6, DV −6.3; Pf cortex, AP +3.2, 8° ML ±1.2, DV −4.0 according to (Paxinos and Watson 1986). […]
30 μl of each sample was injected into the chromatograph. […] The currents generated by the two EC detectors are converted to digital data and evaluated using Chromelion software (Dionex, Sunnyvale, Calif.) on a PC. The method sample turn over time was 4.5 min and two parallel experiments are normally analysed simultaneously on the system. […]

For the next series, the system named is MK-801 pre-treated rats. Put plainly: Locomotor activity in MK-801 pre-treated rats. The settings on record: MK-801 0.7 mg/kg i.p. alone, recorded between 30 and 60 minutes, ± SEM.
The subject of the next series is drug-naive rats. Description: Locomotor activity in drug-naive rats. The conditions noted are these: drug-naive habituated rats, recorded between 30 and 60 minutes, ± SEM.
[6] abbreviates: increase of DOPAC in rat striatum after systemic administration (s.c.), maximal effects limited to 350-400% of control, range covers 95% of fits.

Structures are written as SMILES. Read-outs that look alike come from different tables or passages of the source.

For the compound `CCN1CCC(c2cccc(C(=O)C(F)(F)F)c2F)CC1`, the ED50 (commonly the midpoint of the dose-response relation) in series [1] (setting [6]) was 12 µmol/kg.
`CCCN1CCC(c2cccc(S(C)(=O)=O)c2C(F)(F)F)CC1` [4-[3-(methylsulfonyl)-2-(trifluoromethyl)phenyl]-1-propylpiperidine]: the result in series [2] was inactive.
Regarding `CCCN1CCC(c2cccc(S(C)(=O)=O)c2F)CC1` [Example 1, 4-[2-FLUORO-3-(METHYLSULFONYL)PHENYL]-1-PROPYLPIPERIDINE], the bioavailability (as a rule, dose-corrected exposure relative to a reference, in per cent) in series [3] was roughly 100%.
In the case of `CCN1CCC(c2cccc(S(C)(=O)=O)c2F)CC1` [Example 2, 1-ETHYL-4-[2-FLUORO-3-(METHYLSULFONYL)PHENYL]-PIPERIDINE], in series [3], the bioavailability worked out at 87%. Moreover, the “turnover at 15 minutes” value in series [4] was determined as 1%. In addition, the “levels of dopamine and norepinephrine in the cortex” value in series [5] (50 μmol/kg s.c., pf. cortex, FIG. 2) was “elevate the levels of dopamine and norepinephrine in the cortex”.
On to `CCCN1CCC(c2cccc(C(F)(F)F)c2C#N)CC1` [Example 7, 2-(1-PROPYLPIPERIDIN-4-YL)-6-(TRIFLUOROMETHYL)BENZONITRILE], for which the bioavailability in series [3] was 29%.
`C[C@]12N[C@H](Cc3ccccc31)c1ccccc12` [MK-801]: the “Locomotor activity, MK-801” value in the series with MK-801 pre-treated rats was 51333 ± 2148 counts/30 min.
As to `CCN1CCC(c2cccc(S(C)(=O)=O)c2F)CC1` [drawing 10], the ED50 in series [1] (setting [6]) was determined as 68 µmol/kg.
As to `COCCN1CCC(c2cccc(S(C)(=O)=O)c2F)CC1` [drawing 12], in series [1] (setting [6]), the ED50 turned out to be 84 µmol/kg.
Consider `CCN1CCC(c2cccc(S(C)(=O)=O)c2F)CC1` [drawing 36], for which the Locomotor activity is given as 2254 ± 804 counts/30 min with drug-naive rats (11 μmol/kg), 2499 ± 766 (P = 0.1) counts/30 min in the series on drug-naive rats (33 μmol/kg) and 2418 ± 703 (P = 0.1) counts/30 min with drug-naive rats (100 μmol/kg).
On to `COCCN1CCC(c2cccc(S(C)(=O)=O)c2F)CC1` [drawing 38], for which the figures for the Locomotor activity with drug-naive rats (11 μmol/kg), in the series with drug-naive rats (33 μmol/kg) and in the series on drug-naive rats (100 μmol/kg) were 1836 ± 504 (P = 0.064) counts/30 min, 1258 ± 623 counts/30 min and 1085 ± 211 counts/30 min, respectively.
On to `CN1CCN2c3ncccc3Cc3ccccc3C2C1` (stereo not shown) [mirtazapine, reference compound], for which the “extracellular norepinephrine and dopamine in the cortex” value in series [5] (10 mg/kg s.c., cortex, FIG. 1) is “increase predominantly extracellullar norepinephrine and dopamine in the cortex”.
Regarding `COCCN1CCC(c2cccc(S(C)(=O)=O)c2)CC1` [reference compound], the ED50 in series [1] (setting [6]) was determined as 208 µmol/kg.
Turning to `CCCN1CCC(c2cccc(C(F)(F)F)c2)CC1` [reference compound], the ED50 in series [1] (Rattus norvegicus) turned out to be 84 µmol/kg.

For the origin of these results see patent publication US8314126B2, “Disubstituted phenylpiperdines/piperazines as modulators of dopamine neurotransmission” (NSAB, Filial af Neurosearch Sweden AB, Sverige, priority 2004, dated 2012).
